Experimental data published in PubChem BioAssay AID1963977 (Molecular Pharmacology Branch, DTP, NCI, 2024).

Tested on: 624824-186-R-J3-PDC multicell spheroids, viability
Experiment: Anticancer human tumor 624824-186-R-J3-PDC patient-derived colon adenocarcinoma cell line growth inhibition [PI3K]
Details: for IC50: curve of first compound; for viability, T/C: stronger effect = lower value; active = viability on the fitted dose curve at most 10% of control; inactive = the rest
In short: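 Multi-cell spheroids combine tumor cells with HUVEC and human MSCs, treated with targeted agents alone or with inavolisib, alpelisib, duvelisib or copanlisib. Concentrations fall in half-log steps from at or near clinical Cmax, or from 10 microM where Cmax is unknown; viability read-out.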

[1] = second compound 0.00316 µM, first compound 0.0316 µM
[2] = second compound 0.00316 µM, first compound 0.1 µM
[3] = second compound 0.00316 µM, first compound 0.316 µM
[4] = second compound 0.00316 µM, first compound 1 µM
[5] = second compound 0.00316 µM, first compound 3.16 µM
[6] = second compound 0.00316 µM, first compound 10 µM
[7] = second compound 0.01 µM, first compound 0.0316 µM
[8] = second compound 0.01 µM, first compound 0.1 µM
[9] = second compound 0.01 µM, first compound 0.316 µM
[10] = second compound 0.01 µM, first compound 1 µM
[11] = second compound 0.01 µM, first compound 3.16 µM
[12] = second compound 0.01 µM, first compound 10 µM
[13] = second compound 0.0316 µM, first compound 0.0316 µM
[14] = second compound 0.0316 µM, first compound 0.1 µM
[15] = second compound 0.0316 µM, first compound 0.316 µM
[16] = second compound 0.0316 µM, first compound 1 µM
[17] = second compound 0.0316 µM, first compound 3.16 µM
[18] = second compound 0.0316 µM, first compound 10 µM
[19] = second compound 0.1 µM, first compound 0.0316 µM
[20] = second compound 0.1 µM, first compound 0.1 µM
[21] = second compound 0.1 µM, first compound 0.316 µM
[22] = second compound 0.1 µM, first compound 1 µM
[23] = second compound 0.1 µM, first compound 3.16 µM
[24] = second compound 0.1 µM, first compound 10 µM
[25] = second compound 0.316 µM, first compound 0.0316 µM
[26] = second compound 0.316 µM, first compound 0.1 µM
[27] = second compound 0.316 µM, first compound 0.316 µM
[28] = second compound 0.316 µM, first compound 1 µM
[29] = second compound 0.316 µM, first compound 3.16 µM
[30] = second compound 0.316 µM, first compound 10 µM
[31] = second compound 1 µM, first compound 0.0316 µM
[32] = second compound 1 µM, first compound 0.1 µM
[33] = second compound 1 µM, first compound 0.316 µM
[34] = second compound 1 µM, first compound 1 µM
[35] = second compound 1 µM, first compound 3.16 µM
[36] = second compound 1 µM, first compound 10 µM
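Note: spheroids exposed to agents for seven days before luminescence read.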
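Throughout, for viability, T/C: luminescent signal used as a stand-in for spheroid viability; percent viability relative to DMSO vehicle control wells taken as 100%.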

CC1(C)CCC(Nc2ncc(C(F)(F)F)c(-c3c[nH]c4c(P(C)(C)=O)c(C#N)ccc34)n2)CN1 (stereo unspecified) + COc1c(OCCCN2CCOCC2)ccc2c3n(c(=NC(=O)c4cnc(N)nc4)nc12)CCN3
5.42 µM: IC50 (second compound 0.00316 µM)
inactive: viability, T/C [1] 103% | viability, T/C [2] 84.7% | viability, T/C [3] 87.1% | viability, T/C [4] 85% | viability, T/C [5] 95.1% | viability, T/C [7] 90.8% | viability, T/C [8] 72.4% | viability, T/C [9] 76.6% | viability, T/C [10] 81.7% | viability, T/C [11] 89.5% | viability, T/C [13] 59.7% | viability, T/C [14] 55.2% | viability, T/C [15] 54.9% | viability, T/C [16] 60.6% | viability, T/C [17] 55.9% | viability, T/C [19] 41.8% | viability, T/C [20] 36.6% | viability, T/C [21] 40.8% | viability, T/C [22] 38.2% | viability, T/C [23] 37.9% | viability, T/C [25] 28.5% | viability, T/C [26] 30.3% | viability, T/C [27] 28.9% | viability, T/C [28] 24.8% | viability, T/C [29] 24.7% | viability, T/C [31] 19.4% | viability, T/C [32] 18.4% | viability, T/C [33] 19% | viability, T/C [34] 18.1% | viability, T/C [35] 18%
5.06 µM: IC50 (second compound 0.01 µM)
< 0.0316 µM: IC50 (second compound 0.1 µM) | IC50 (second compound 0.316 µM) | IC50 (second compound 1 µM)
active: viability, T/C [6] 3.27% | viability, T/C [12] 3.28% | viability, T/C [18] 2.59% | viability, T/C [24] 1.87% | viability, T/C [30] 1.42% | viability, T/C [36] 1.68%
3.6 µM: IC50 (second compound 0.0316 µM)

Cn1ncnc1[C@H]1c2n[nH]c(=O)c3cc(F)cc(c23)N[C@@H]1c1ccc(F)cc1 + COc1c(OCCCN2CCOCC2)ccc2c3n(c(=NC(=O)c4cnc(N)nc4)nc12)CCN3
< 0.000316 µM: IC50 (second compound 0.316 µM) | IC50 (second compound 1 µM)
inactive: viability, T/C (second compound 0.00316 µM, first compound 0.000316 µM) 103% | viability, T/C (second compound 0.00316 µM, first compound 0.001 µM) 97.5% | viability, T/C (second compound 0.00316 µM, first compound 0.00316 µM) 102% | viability, T/C (second compound 0.00316 µM, first compound 0.01 µM) 96.3% | viability, T/C [1] 90.1% | viability, T/C [2] 102% | viability, T/C (second compound 0.01 µM, first compound 0.000316 µM) 115% | viability, T/C (second compound 0.01 µM, first compound 0.001 µM) 110% | viability, T/C (second compound 0.01 µM, first compound 0.00316 µM) 102% | viability, T/C (second compound 0.01 µM, first compound 0.01 µM) 93.1% | viability, T/C [7] 97.1% | viability, T/C [8] 107% | viability, T/C (second compound 0.0316 µM, first compound 0.000316 µM) 91.1% | viability, T/C (second compound 0.0316 µM, first compound 0.001 µM) 103% | viability, T/C (second compound 0.0316 µM, first compound 0.00316 µM) 88.5% | viability, T/C (second compound 0.0316 µM, first compound 0.01 µM) 90.8% | viability, T/C [13] 87.2% | viability, T/C [14] 97.3% | viability, T/C (second compound 0.1 µM, first compound 0.000316 µM) 77.1% | viability, T/C (second compound 0.1 µM, first compound 0.001 µM) 76% | viability, T/C (second compound 0.1 µM, first compound 0.00316 µM) 83.1% | viability, T/C (second compound 0.1 µM, first compound 0.01 µM) 73.3% | viability, T/C [19] 75.3% | viability, T/C [20] 71% | viability, T/C (second compound 0.316 µM, first compound 0.000316 µM) 48.3% | viability, T/C (second compound 0.316 µM, first compound 0.001 µM) 48.3% | viability, T/C (second compound 0.316 µM, first compound 0.00316 µM) 54% | viability, T/C (second compound 0.316 µM, first compound 0.01 µM) 44.9% | viability, T/C [25] 48.7% | viability, T/C [26] 46% | viability, T/C (second compound 1 µM, first compound 0.000316 µM) 27.3% | viability, T/C (second compound 1 µM, first compound 0.001 µM) 28% | viability, T/C (second compound 1 µM, first compound 0.00316 µM) 30.1% | viability, T/C (second compound 1 µM, first compound 0.01 µM) 25.9% | viability, T/C [31] 23.9% | viability, T/C [32] 27%
> 0.1 µM: IC50 (second compound 0.00316 µM) | IC50 (second compound 0.01 µM) | IC50 (second compound 0.0316 µM) | IC50 (second compound 0.1 µM)

Cn1ncc(Cl)c1-c1cc(C(=O)NC(CN)Cc2cccc(F)c2)sc1Cl (stereo unspecified) + CC(Nc1ccc2c(c1)OCCn1cc(N3C(=O)OCC3C(F)F)nc1-2)C(N)=O
3.12 µM: IC50 (second compound 1 µM)
inactive: viability, T/C [1] 111% | viability, T/C [2] 105% | viability, T/C [3] 103% | viability, T/C [4] 74.1% | viability, T/C [5] 55.4% | viability, T/C [6] 80% | viability, T/C [7] 103% | viability, T/C [8] 99.3% | viability, T/C [9] 92.9% | viability, T/C [10] 70% | viability, T/C [11] 52.4% | viability, T/C [12] 84% | viability, T/C [13] 104% | viability, T/C [14] 99.4% | viability, T/C [15] 90.2% | viability, T/C [16] 66.7% | viability, T/C [17] 49.5% | viability, T/C [18] 83.1% | viability, T/C [19] 103% | viability, T/C [20] 97.3% | viability, T/C [21] 91.4% | viability, T/C [22] 69.2% | viability, T/C [23] 51.4% | viability, T/C [24] 79.2% | viability, T/C [25] 100% | viability, T/C [26] 93% | viability, T/C [27] 88.5% | viability, T/C [28] 64.1% | viability, T/C [29] 42% | viability, T/C [30] 62.4% | viability, T/C [31] 90.1% | viability, T/C [32] 90.6% | viability, T/C [33] 76.7% | viability, T/C [34] 63.7% | viability, T/C [35] 44.3% | viability, T/C [36] 50.9%
> 10 µM: IC50 (second compound 0.00316 µM) | IC50 (second compound 0.01 µM) | IC50 (second compound 0.0316 µM) | IC50 (second compound 0.1 µM) | IC50 (second compound 0.316 µM)
